Results from the NIST ThermoML archive (doi:10.1016/j.jct.2018.12.009).

Conditions: for vapor or sublimation pressure: Liquid, Closed cell (Static) method; for mass density: Fluid (supercritical or subcritical phases), isochoric method

CC(C)O [propan-2-ol]
Conditions	vapor or sublimation pressure [kPa]
301.24 K	7
314.26 K	15
314.29 K	15
314.52 K	15
314.8 K	16
315.05 K	16
315.3 K	16
315.42 K	16
315.61 K	16
315.8 K	17
341.91 K	57
342.03 K	57
342.08 K	57
342.2 K	57
342.32 K	58
342.49 K	58
342.67 K	58
342.79 K	59
342.91 K	59
343.03 K	59
369.05 K	169
369.13 K	169
369.16 K	169
369.28 K	170
369.39 K	171
369.5 K	171
369.67 K	172
369.84 K	173
369.96 K	174
370.07 K	175
391.32 K	358
391.5 K	360
391.53 K	360
391.54 K	360
391.65 K	362
391.76 K	363
391.87 K	364
391.98 K	366
392.09 K	367
392.2 K	368
416.55 K	732
416.65 K	734
416.73 K	736
416.76 K	736
416.86 K	739
416.97 K	741
417.08 K	743
417.18 K	745
417.29 K	747
417.4 K	749
417.5 K	756
442.12 K	1367
442.14 K	1368
442.23 K	1371
442.33 K	1374
442.43 K	1377
442.54 K	1381
442.64 K	1383
442.74 K	1386
442.85 K	1389
463.48 K	2136
463.56 K	2140
463.58 K	2141
463.78 K	2149
463.83 K	2152
463.97 K	2158
464.18 K	2166
464.27 K	2171
464.42 K	2177
464.97 K	2201
465.27 K	2213
465.34 K	2217
468.1 K	2330
482.51 K	3081
482.6 K	3085
482.7 K	3089
482.72 K	3090
482.8 K	3093
482.89 K	3098
482.99 K	3102
483.09 K	3106
483.18 K	3110
500.85 K	4213
500.95 K	4219
501.04 K	4224
501.08 K	4226
501.14 K	4229
501.23 K	4235
501.33 K	4240
501.42 K	4245
501.53 K	4251
501.62 K	4256
501.81 K	4267
501.9 K	4272
503.92 K	4428
504.02 K	4438
504.03 K	4436
504.11 K	4366
504.31 K	4456
504.5 K	4470
504.59 K	4477
504.98 K	4504
505.06 K	4521
505.08 K	4522
505.27 K	4536
505.37 K	4544
506.43 K	4667
506.53 K	4675
506.61 K	4648
506.62 K	4682
506.72 K	4690
506.82 K	4697
506.96 K	4708
506.97 K	4709
507.11 K	4720
507.2 K	4727
507.3 K	4735
507.4 K	4743
507.5 K	4750
507.59 K	4757
507.69 K	4765
507.79 K	4773
507.89 K	4781
508.04 K	4793
508.16 K	4803

Conditions	mass density [kg/m3]
508.16 K, 4803 kPa	329.2
508.18 K, 4804 kPa	329.2
508.28 K, 4813 kPa	329.2
508.37 K, 4822 kPa	329.2
508.47 K, 4831 kPa	329.2
508.57 K, 4840 kPa	329.2
508.67 K, 4849 kPa	329.2
508.76 K, 4858 kPa	329.2
509.35 K, 4911 kPa	329.2
509.45 K, 4920 kPa	329.2
509.5 K, 5095 kPa	329.2
509.55 K, 4929 kPa	329.2
509.64 K, 4938 kPa	329.2
509.79 K, 4951 kPa	329.2
509.99 K, 4967 kPa	329.2
510.14 K, 4981 kPa	329.2
510.23 K, 4990 kPa	329.2
510.33 K, 4999 kPa	329.2
510.48 K, 5012 kPa	329.2
510.93 K, 5271 kPa	329.2
516.9 K, 5603 kPa	329.2
516.99 K, 5611 kPa	329.2
517.08 K, 5619 kPa	329.2
517.27 K, 5637 kPa	329.2
521.87 K, 6056 kPa	329.2
521.96 K, 6064 kPa	329.2
522.14 K, 6080 kPa	329.2
522.33 K, 6397 kPa	329.2
522.42 K, 6405 kPa	329.2
522.51 K, 6414 kPa	329.2
522.6 K, 6495 kPa	329.2
